# Literature values in patent US6353019B1, “Macrocyclic lactones, compositions, and methods of use” (United States of America as represented by the Department …, priority 1997, dated 2002).
# Conditions: reported by Suzumure et al., Tetrahedron Lett. 1997; cited from earlier work
substance,measurement,value
lobatamide A,antifungal activity,weak antifungal activity
